Here are results for 29 compounds from US7994141B2, “Compositions comprising compounds of natural origin for damaged skin” (Biospectrum, Inc., priority 2006, dated 2011).

Holding throughout (conditions): individual compound of natural origin
In assay [1] the test system is NF-kB luciferase activity. The assay can be described thus: Anti-inflammatory effect: inhibition test of NF-kB luciferase activity (TNF-alpha treated fibroblasts). Type of assay: cell-based, Human fibroblasts and mouse fibroblasts, NIH3T3. Further details: key: −: No effect; +: Weak effect; ++: Moderate effect; +++: Strong effect; ++++: Very strong effect. The method, then: The anti-inflammatory effect was determined by the inhibition test of NF-kB luciferase activity. Human fibroblasts and mouse fibroblasts, NIH3T3 were transfected with NF-kB reporter DNA using SuperFect to induce transformation. At 24 hrs after transformation, the samples were treated with TNF-alpha (10 ng/ml). After 16 hrs, the cells were collected, and luminescence measurements were made […] using a Luminometer (Berthold, Germany).

The next assay has as its system Human keratinocytes. Description: Wound-healing effect: cell migration assay. Type of assay: cell-based. Further details: key: −: No effect; +: Weak effect; ++: Moderate effect; +++: Strong effect; ++++: Very strong effect. The method, then:
The wound-healing effect was determined by a cell migration assay. Human keratinocytes were confluently cultured in keratinocyte-SFM media and then, treated with […] mitomycin C (Sigma Chemical) to inhibit cell growth for the measurement of cell migration. The confluent cell monolayer was scratched using a yellow pipette tip to create a cell-free region and then, the cell debris was washed with PBS. After the treatment, the samples were cultured in keratinocyte-SFM media for 48 hrs to observe the effect on cell migration (Cecile A et. al., Molecular Biology of the Cell, 2002; 13: 3845-3858).

A short description of assay [2]: Moisturizing effect: transepidermal water loss (Tewameter TM210). Type of assay: in vivo, human subjects. Further details: key: −: No effect; +: Weak effect; ++: Moderate effect; +++: Strong effect; ++++: Very strong effect. The method, then:
The transepidermal water loss was measured using a Tewameter TM210 (Germany). The measurement was performed twice, before the treatment and at 2 weeks after the treatment, and the results were statistically compared. The measurement was performed in a temperature/humidity controlled room (no air flow, no light, at a temperature of 22° C. and relative humidity of 40%). The measurement was performed in the abdomen of thirty subjects.

Assay [3] can be described thus: Determination of antioxidant activity (DPPH method). Type of assay: biochemical. The procedure: DPPH (1,1-diphenyl-2-picrylhydrazyl) is a chromogenic radical and thus, can be used to directly confirm the radical scavenging activity of the samples. The samples were dissolved in 4 ml of distilled water or solvent (methanol) and then, mixed well with 1 ml of 100 μM DPPH. Subsequently, the samples were incubated at room temperature for 30 minutes. The absorbance of the remaining DPPH was measured at 517 nm. As a blank of the present experiment, distilled water or solvent was used, and as a control, an experimental group composed only of DPPH in distilled water or solvent without the sample was used. Further, vitamin C was used as a positive control.
For orientation: DPPH is a stable violet radical that fades when it is reduced.

For `C=CCc1ccc(O)c(-c2ccc(O)c(CC=C)c2)c1` [Honokiol], the Anti-inflammatory effect entry in assay [1] was “+”. Moreover, the Wound-healing effect result in the assay on Human keratinocytes is reported as “++”. Moreover, in assay [2], the Moisturizing effect entry was “−”. Besides, the Antioxidant effect entry in assay [3] is “+”.
Regarding `C=CCc1ccc(O)c(-c2cc(CC=C)ccc2O)c1` [Magnolol], in assay [1], the Anti-inflammatory effect result was “+”. The Wound-healing effect result in the assay on Human keratinocytes is on record as “+”. Also, the Moisturizing effect result in assay [2] is recorded as “−”. Besides, the Antioxidant effect result in assay [3] is on record as “+”.
For the compound `CC/C=C\C/C=C\C/C=C\CCCCCCCC(=O)O` [Linolenic acid], in assay [1], the Anti-inflammatory effect entry is “++”. For the same compound, in the assay on Human keratinocytes, the Wound-healing effect result is recorded as “++”. Further, the Moisturizing effect result in assay [2] was “++”.
On to `OCc1c[nH]c2ccccc12` [Indole-3-carbinol], for which the Anti-inflammatory effect result in assay [1] is listed as “+”. In the assay with Human keratinocytes, the Wound-healing effect result is reported as “+”. Also, the Moisturizing effect entry in assay [2] was “−”. The Antioxidant effect result in assay [3] was “+”.
On to `O=C(O)CCCCC1CCSS1` (stereo not drawn) [alpha-lipoic acid], for which the Anti-inflammatory effect result in assay [1] is listed as “+”. For the same compound, the Wound-healing effect entry in the assay with Human keratinocytes was “++”. Also, the Moisturizing effect result in assay [2] is listed as “−”. Besides, the Antioxidant effect entry in assay [3] is listed as “+”.
`O=c1cc(-c2ccccc2)oc2cc(O)c(O)c(O)c12` [Baicalein]: in assay [1], the Anti-inflammatory effect entry is reported as “++”. Also, the Wound-healing effect result in the assay with Human keratinocytes is on record as “++”. Moreover, in assay [2], the Moisturizing effect entry is reported as “++”. The Antioxidant effect result in assay [3] is “++”.
On to `O=P(O)(O)O[C@H]1[C@H](OP(=O)(O)O)[C@@H](OP(=O)(O)O)[C@H](OP(=O)(O)O)[C@@H](OP(=O)(O)O)[C@H]1OP(=O)(O)O` [Phytic acid], for which the Anti-inflammatory effect entry in assay [1] is given as “+”. Also, the Wound-healing effect result in the assay with Human keratinocytes was “++”. Moreover, the Moisturizing effect entry in assay [2] was “−”. Further, the Antioxidant effect result in assay [3] was “+”.
In the case of `O=C(/C=C/c1ccc(O)c(O)c1)O[C@H](Cc1ccc(O)c(O)c1)C(=O)O` [Rosmarinic acid], the Anti-inflammatory effect entry in assay [1] was “++”. Further, the Wound-healing effect entry with Human keratinocytes is “++”. Also, the Moisturizing effect result in assay [2] is listed as “++”. Further, the Antioxidant effect result in assay [3] is on record as “++”.
On to `CC1=C(O)C(=O)C(C)O1` (stereo not shown) [Furaneol], for which the Anti-inflammatory effect result in assay [1] is reported as “+”. The Wound-healing effect result with Human keratinocytes is reported as “+”. In addition, the Moisturizing effect result in assay [2] was “+”.
With `C[C@@H]1O[C@@H](OC[C@H]2O[C@@H](Oc3c(-c4ccc(O)c(O)c4)oc4cc(O)cc(O)c4c3=O)[C@H](O)[C@@H](O)[C@@H]2O)[C@H](O)[C@H](O)[C@H]1O` [Rutin], the Anti-inflammatory effect result in assay [1] is on record as “+”. Besides, in the assay with Human keratinocytes, the Wound-healing effect entry is listed as “+”. Besides, the Moisturizing effect entry in assay [2] is “+”.
On to `CC(C)=CCC/C(C)=C/CO` [Geraniol], for which the Anti-inflammatory effect result in assay [1] is on record as “++”. Also, the Wound-healing effect result in the assay with Human keratinocytes is recorded as “+”. Further, in assay [2], the Moisturizing effect result is “−”.
Consider `CC1=C(/C=C/C(C)=C/C=C/C(C)=C/CO)C(C)(C)CCC1` [Retinol], for which the Anti-inflammatory effect result in assay [1] is “+”. The Wound-healing effect entry with Human keratinocytes is on record as “+”. Besides, the Moisturizing effect entry in assay [2] is “−”. For the same compound, the Antioxidant effect result in assay [3] is listed as “+”.
As to `CCCCCCCC/C=C/CCCCCCCC(=O)O` [Elaidic acid], in assay [1], the Anti-inflammatory effect result was “+”. For the same compound, the Wound-healing effect result with Human keratinocytes was “+”. Also, in assay [2], the Moisturizing effect result is recorded as “−”. For the same compound, the Antioxidant effect result in assay [3] is on record as “+”.
For the compound `CCCCCCCC/C=C\CCCCCCCC(=O)O` [Oleic acid], the Anti-inflammatory effect result in assay [1] is “+”. Moreover, in the assay on Human keratinocytes, the Wound-healing effect entry is on record as “+”. In addition, the Moisturizing effect result in assay [2] was “+”. In addition, the Antioxidant effect result in assay [3] is “+”.
As to `O=C(O)/C=C/c1ccc(O)c(O)c1` [Caffeic acid], in assay [1], the Anti-inflammatory effect entry is “+”. For the same compound, the Wound-healing effect result with Human keratinocytes is listed as “+”. Moreover, the Moisturizing effect entry in assay [2] is “+”. Besides, the Antioxidant effect entry in assay [3] is on record as “+”.
Regarding `Cc1c(C)c2c(c(C)c1O)CC[C@@](C)(CCC[C@H](C)CCC[C@H](C)CCCC(C)C)O2` [alpha-Tocopherol], the Anti-inflammatory effect entry in assay [1] is given as “+”. The Wound-healing effect result in the assay on Human keratinocytes is recorded as “++”. In assay [3], the Antioxidant effect entry is listed as “+”.
As to `O=c1c(O)c(-c2ccc(O)c(O)c2)oc2cc(O)cc(O)c12` [Quercetin], the Anti-inflammatory effect entry in assay [1] is given as “++”. The Wound-healing effect entry in the assay with Human keratinocytes is on record as “++”. In assay [2], the Moisturizing effect result is “++”. Moreover, in assay [3], the Antioxidant effect entry is “++”.
Consider `CC(C)=CCC[C@](C)(O[C@@H]1O[C@H](CO[C@@H]2O[C@H](CO)[C@@H](O)[C@H](O)[C@H]2O)[C@@H](O)[C@H](O)[C@H]1O)[C@H]1CC[C@]2(C)[C@@H]1[C@H](O)C[C@@H]1[C@@]3(C)CC[C@H](O[C@@H]4O[C@H](CO)[C@@H](O)[C@H](O)[C@H]4O[C@@H]4O[C@H](CO)[C@@H](O)[C@H](O)[C@H]4O)C(C)(C)[C@@H]3CC[C@]12C` [Ginsenoside Rb1], for which the Anti-inflammatory effect entry in assay [1] was “+”. For the same compound, the Wound-healing effect entry in the assay with Human keratinocytes was “+”. In addition, the Moisturizing effect entry in assay [2] was “+”. For the same compound, the Antioxidant effect entry in assay [3] is recorded as “−”.
As to `CCc1ccc(C)c2ccc(C)c-2c1` [Chamazulene], the Anti-inflammatory effect entry in assay [1] was “++”. Further, in the assay with Human keratinocytes, the Wound-healing effect entry is “++”. Also, the Moisturizing effect entry in assay [2] is “++”. In assay [3], the Antioxidant effect result is listed as “++”.
As to `O=C(O)c1cc(O)c(O)c(O)c1` [Garlic acid], in assay [1], the Anti-inflammatory effect result is recorded as “+”. The Wound-healing effect entry in the assay on Human keratinocytes is “+”. For the same compound, in assay [2], the Moisturizing effect entry is listed as “−”. Further, in assay [3], the Antioxidant effect result is recorded as “+”.
With `C[C@H]1[C@H](C)CC[C@]2(C(=O)O)CC[C@]3(C)C(=CC[C@@H]4[C@@]5(C)C[C@@H](O)[C@H](O)[C@@](C)(CO)[C@@H]5[C@H](O)C[C@]43C)[C@H]12` [Madecassic acid], in assay [1], the Anti-inflammatory effect entry is “++”. Moreover, the Wound-healing effect result in the assay on Human keratinocytes was “++”. Further, the Moisturizing effect entry in assay [2] is recorded as “++”.
In the case of `O=C1O[C@H]([C@@H](O)CO)C(O)=C1O` [Ascorbic acid], the Anti-inflammatory effect entry in assay [1] is “+”. Further, in the assay with Human keratinocytes, the Wound-healing effect entry is “++”. Moreover, the Moisturizing effect entry in assay [2] is reported as “−”. Also, the Antioxidant effect entry in assay [3] is recorded as “+”.
For the compound `OCCc1ccc(O)c(O)c1` [Hydroxytyrosol], the Anti-inflammatory effect result in assay [1] was “+”. Besides, in the assay with Human keratinocytes, the Wound-healing effect result was “+”. Also, the Moisturizing effect entry in assay [2] is on record as “+”.
Take `O=c1ccc2ccccc2o1` [Coumarin]: the Anti-inflammatory effect entry in assay [1] is “++”. Further, the Wound-healing effect result with Human keratinocytes is “+”. The Moisturizing effect result in assay [2] was “−”. The Antioxidant effect entry in assay [3] was “+”.
For the compound `CC1(C)[C@@H](O[C@H]2O[C@H](C(=O)O)[C@@H](O)[C@H](O)[C@H]2O[C@@H]2O[C@H](C(=O)O)[C@@H](O)[C@H](O)[C@H]2O)CC[C@]2(C)[C@H]3C(=O)C=C4[C@@H]5C[C@@](C)(C(=O)O)CC[C@]5(C)CC[C@@]4(C)[C@]3(C)CC[C@@H]12` [Glycyrrhizin], the Anti-inflammatory effect entry in assay [1] is reported as “++”. In addition, the Wound-healing effect result with Human keratinocytes was “++”. In addition, in assay [2], the Moisturizing effect result was “++”. The Antioxidant effect entry in assay [3] is listed as “++”.
Take `Oc1cc(O)cc(/C=C/c2ccccc2)c1` [Pinosylvin]: in assay [1], the Anti-inflammatory effect result is “+”. Also, in the assay on Human keratinocytes, the Wound-healing effect entry is given as “++”. Further, the Moisturizing effect entry in assay [2] was “−”. Also, the Antioxidant effect entry in assay [3] is recorded as “+”.
Regarding `COC1=C(OC)C(=O)C(C/C=C(\C)CC/C=C(\C)CC/C=C(\C)CC/C=C(\C)CC/C=C(\C)CC/C=C(\C)CC/C=C(\C)CC/C=C(\C)CC/C=C(\C)CCC=C(C)C)=C(C)C1=O` [Coenzyme Q10], the Anti-inflammatory effect entry in assay [1] was “−”. Also, the Wound-healing effect result in the assay with Human keratinocytes is reported as “+”. For the same compound, the Moisturizing effect entry in assay [2] is “+”. For the same compound, in assay [3], the Antioxidant effect entry was “+”.
Turning to `Cc1cc(O)c2c(c1)C(=O)c1cc(O)cc(O)c1C2=O` [Emodin], in assay [1], the Anti-inflammatory effect result is “++”. Moreover, the Wound-healing effect entry with Human keratinocytes is “++”. For the same compound, in assay [2], the Moisturizing effect result is recorded as “++”. In assay [3], the Antioxidant effect entry is recorded as “++”.
Regarding `C[C@@H]1CC[C@@]2(OC1)O[C@H]1C[C@H]3[C@@H]4CC=C5C[C@@H](O)CC[C@]5(C)[C@H]4CC[C@]3(C)[C@H]1[C@@H]2C` [Diosgenin], the Anti-inflammatory effect result in assay [1] is given as “+”. For the same compound, the Wound-healing effect entry in the assay on Human keratinocytes is “++”. The Moisturizing effect result in assay [2] is listed as “+”. Also, the Antioxidant effect result in assay [3] was “−”.
